Test results from PubChem BioAssay AID1963856 (Molecular Pharmacology Branch, DTP, NCI, 2024).

Tested on: LG0567-F671-PDC KRAS tumor spheroid viability
Test: Anticancer human tumor LG0567-F671-PDC patient-derived lung adenocarcinoma cell line growth inhibition [KRAS2]
Conditions: spheroids with HUVEC and MSC; for IC50: curve of first compound; for viability, T/C: stronger effect = lower value
In short: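 KRAS-mutant tumor cells were grown as spheroids with HUVEC endothelial cells and human MSCs as stroma. Targeted agents were tested alone and with KRAS pathway inhibitors. Doses started at or near clinical Cmax, or 10 microM, descending half-log.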
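Note: drug exposure lasted seven days after spheroids formed for three days.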
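Throughout, for viability, T/C: 100% = DMSO vehicle control viability.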

CN(C)C/C=C/C(=O)Nc1cc2c(Nc3ccc(F)c(Cl)c3)ncnc2cc1O[C@H]1CCOC1 + C=CC(=O)N1CCN(c2nc(OCC3CCCN3C)nc3c2CCN(c2cccc4cccc(C)c24)C3)CC1CC#N
IC50 (second compound 0.0316 µM): < 0.316 nM
IC50 (second compound 0.1 µM): < 0.316 nM
IC50 (second compound 0.316 µM): < 0.316 nM
IC50 (second compound 1 µM): < 0.316 nM
IC50 (second compound 3.16 µM): < 0.316 nM
viability, T/C (second compound 0.0316 µM, first compound 0.000316 µM): 39.3%
viability, T/C (second compound 0.0316 µM, first compound 0.001 µM): 40.4%
viability, T/C (second compound 0.0316 µM, first compound 0.00316 µM): 41.9%
viability, T/C (second compound 0.0316 µM, first compound 0.01 µM): 29.8%
viability, T/C (second compound 0.0316 µM, first compound 0.0316 µM): 30.4%
viability, T/C (second compound 0.0316 µM, first compound 0.1 µM): 23.5%
viability, T/C (second compound 0.1 µM, first compound 0.000316 µM): 38.1%
viability, T/C (second compound 0.1 µM, first compound 0.001 µM): 32%
viability, T/C (second compound 0.1 µM, first compound 0.00316 µM): 26.5%
viability, T/C (second compound 0.1 µM, first compound 0.01 µM): 34.5%
viability, T/C (second compound 0.1 µM, first compound 0.0316 µM): 25.8%
viability, T/C (second compound 0.1 µM, first compound 0.1 µM): 18.5%
viability, T/C (second compound 0.316 µM, first compound 0.000316 µM): 24.8%
viability, T/C (second compound 0.316 µM, first compound 0.001 µM): 28.8%
viability, T/C (second compound 0.316 µM, first compound 0.00316 µM): 34.4%
viability, T/C (second compound 0.316 µM, first compound 0.01 µM): 30.4%
viability, T/C (second compound 0.316 µM, first compound 0.0316 µM): 32.1%
viability, T/C (second compound 0.316 µM, first compound 0.1 µM): 20.1%
viability, T/C (second compound 1 µM, first compound 0.000316 µM): 29.3%
viability, T/C (second compound 1 µM, first compound 0.001 µM): 32.6%
viability, T/C (second compound 1 µM, first compound 0.00316 µM): 25.1%
viability, T/C (second compound 1 µM, first compound 0.01 µM): 22.2%
viability, T/C (second compound 1 µM, first compound 0.0316 µM): 21.2%
viability, T/C (second compound 1 µM, first compound 0.1 µM): 19%
viability, T/C (second compound 3.16 µM, first compound 0.000316 µM): 26.5%
viability, T/C (second compound 3.16 µM, first compound 0.001 µM): 10.8%
viability, T/C (second compound 3.16 µM, first compound 0.00316 µM): 15.7%
viability, T/C (second compound 3.16 µM, first compound 0.01 µM): 6.55%
viability, T/C (second compound 3.16 µM, first compound 0.0316 µM): 10.2%
viability, T/C (second compound 3.16 µM, first compound 0.1 µM): 11.3%
